Results as given in patent US20040265368A1, “Combination compositions of camptothecins and fluoropyrimidines” (priority 2003, published 2004).

Legend:
[1] = tested on: human HT-29 colon adenocarcinoma; experiment: HT-29 colorectal xenograft antitumor activity; conditions: i.v., Q7D × 3, tumors to reach 400 mg
Method: (§1) Briefly, in order to perform tumor studies on mice, animals are inoculated with tumor cells which are then allowed to grow to sufficient size. Using a 28 g needle, mice are inoculated subcutaneously with 1-2×10^6 tumor cells on day 0 (one inoculum/mouse) in a volume of 50 μL.
(§2) When tumors reach a defined size of approximately 100 mm^3 to 200 mm^3, either one-day prior to treatment or on the day of treatment, all tumors are measured. After selecting the appropriate tumor sizes, excluding tumors too small or large, the tumors are randomly distributed (n=6) and the mean tumor volume of the groups are determined. Mice are organized into appropriate treatment groups consisting of control and treatment groups such as for example, saline control, liposome control, positive control and various dilutions of test articles.
(§3) Mice are injected intravenously with the required volume of sample to administer the prescribed dose (10 μL/g as indicated) to the animals based on individual mouse weights.
(§4) Tumor growth measurements are monitored using vernier calipers beginning on the day of treatment. Tumor length measurements (mm) are made from the longest axis and width measurements (mm) will be perpendicular to this axis. From the length and width measurements tumor volumes (cm^3) are calculated according to the equation (L×W^2/2. Animal weights and in-life observations are collected at the time of tumor measurement.
(§5) In particular, signs of ill health are based on body weight loss, change in appetite, rough coat, lack of grooming, behavioral changes such as altered gait, lethargy and gross manifestations of stress. Should signs of severe toxicity or tumor-related illness be seen, the animals are euthanized (CO2 asphyxiation) and a necropsy is performed to assess other signs of toxicity. Moribund animals are terminated for humane reasons and the decision to terminate is at the discretion of the Study Director/Manager and the Animal Care Technician. Any and all of these findings will be recorded as raw data and the time of death will be logged as the following day.
(§6) Xenograft tumors were allowed to grow until they measured to be approximately 150 mg (150 mm^3) in size, and the murine tumors were grown to approximately 100 mg (100 mm^3), at which time the indicated formulations were injected. Tumor growth was determined by direct caliper measurements. […] Antitumor activity was quantitated by calculating the percent tumor growth delay and log cell kill. Percent tumor growth delay is defined as the time in days taken for treated tumors to reach the specified evaluation size as a percent of control (T−C/C×100) where T is the treatment tumors and C is the control tumors in days. […] A log cell kill of +6 indicates a 99.9999% reduction in the cell population.

[2] = tested on: human Capan-1 pancreatic tumor cells; experiment: Capan-1 pancreatic xenograft antitumor activity; type: in vivo, SCID-Rag2M mice; conditions: i.v., Q7D × 3, tumors to reach 500 mg
Method: as §1, §2, §3, §4, §5, §6

O=c1[nH]c(=O)n([C@H]2C[C@H](O)[C@@H](CO)O2)cc1F [Free Flox, fluorodeoxyuridine]
Log cell kill ([1]; dose 250 mg/kg): 0.09
Percent tumor growth delay [(T − C ÷ C) × 100] ([1]; dose 250 mg/kg): 8%
Tumor growth delay ([1]; dose 250 mg/kg): 2 days
Percent tumor growth delay [(T − C ÷ C) × 100] ([1]; dose 250 mg/kg, listed as free FUDR): 8%
Log cell kill ([2]; dose 250 mg/kg): 0.43
Percent tumor growth delay [(T − C ÷ C) × 100] ([2]; dose 250 mg/kg): 23%
Tumor growth delay ([2]; dose 250 mg/kg): 10 days

CCc1c2c(nc3ccc(OC(=O)N4CCC(N5CCCCC5)CC4)cc13)-c1cc3c(c(=O)n1C2)COC(=O)[C@]3(O)CC [Free Irino, irinotecan]
Log cell kill ([1]; dose 100 mg/kg): 0.09
Percent tumor growth delay [(T − C ÷ C) × 100] ([1]; dose 100 mg/kg): 8%
Tumor growth delay ([1]; dose 100 mg/kg): 2 days
Percent tumor growth delay [(T − C ÷ C) × 100] ([1]; dose 100 mg/kg, listed as free CPT-11, 100 mg/kg): 8%
Log cell kill ([2]; dose 100 mg/kg): 0.65
Percent tumor growth delay [(T − C ÷ C) × 100] ([2]; dose 100 mg/kg): 35%
Tumor growth delay ([2]; dose 100 mg/kg): 15 days
